These results are taken from patent US9855230B2 (ViiV Healthcare UK (No. 5) Limited, priority 2014, dated 2018).

In data set [1] the test system is recombinant NL4-3 virus (nef section replaced with Renilla luciferase gene) in MT-2 cells. As to the kind of experiment: whole plant or invertebrate. Format: cell-based, HIV. As to conditions: NL43, luciferase activity in MT-2 cells infected 4-5 days with recombinant NL4-3 virus. The text has this: A recombinant NL4-3 proviral clone, in which a section of the nef gene was replaced with the Renilla luciferase gene, was used to make the reference virus used in these studies.
Supernatent was harvested after 2-3 days and the amount of virus present was titered in MT-2 cells using luciferase enzyme activity as a marker by measuring luciferase enzyme activity. Luciferase was quantitated using the EnduRen Live Cell Substrate from Promega (Madison, Wis.). Antiviral activities of compounds toward the recombinant virus were quantified by measuring luciferase activity in MT-2 cells infected for 4-5 days with the recombinant virus in the presence of serial dilutions of the compound.

Data set [2] can be described thus: Compound cytotoxicity (CC50), XTT-based colorimetric assay. Conditions: human; uninfected MT2 cells, day 4, XTT assay. Format: cell-based. The protocol: Compound cytotoxicity and the corresponding CC50 values were determined using the same protocol as described in the antiviral assay except that uninfected cells were used. Cytotoxicity was assessed on day 4 in uninfected MT2 cells by using a XTT (2,3-bis[2-Methoxy-4-nitro-5-sulfophenyl]-2H-tetrazolium-5-carboxyanilide inner salt)-based colorimetric assay (Sigma-Aldrich, St Louis, Mo.).
On the technique in general: Formazan colour is commonly taken as a measure of viable cells.

Read-outs that look alike come from different tables or passages of the source.

Turning to `COC(=O)Nc1ccc(-n2ccnc2[C@H](Cc2ccccc2)NC(=O)NS(=O)(=O)c2c(F)cccc2F)cc1` [Example 50, (S)-methyl (4-(2-(1-(3-((2,6-difluorophenyl)sulfonyl)ureido)-2-phenylethyl)-1H-imidazol-1-yl)phenyl)carbamate], the EC50 in data set [1] (read-out: Activity) lay within 100 to 1000 nM. The CC50 at 4 day in data set [2] was more than 100000 nM.

As to `COC(=O)Nc1ccc(-n2ccnc2[C@H](Cc2ccccc2)NC(=O)NS(=O)(=O)c2cccc(Cl)c2Cl)cc1` [Example 51, (S)-methyl (4-(2-(1-(3-((2,3-dichlorophenyl)sulfonyl)ureido)-2-phenylethyl)-1H-imidazol-1-yl)phenyl)carbamate], the EC50 is 100 to 1000 nM in data set [1] (read-out: Activity) and 160 nM in data set [1] (read-out: EC50). In data set [2], this compound came in with a CC50 at 4 day of more than 100000 nM.

Take `COC(=O)Nc1ccc(-n2ccnc2[C@H](Cc2ccccc2)NC(=O)NS(=O)(=O)C(C)C)cc1` [Example 52, (S)-methyl (4-(2-(1-(3-(isopropylsulfonyl)ureido)-2-phenylethyl)-1H-imidazol-1-yl)phenyl)carbamate]: the EC50 in data set [1] (read-out: Activity) lay within 100 to 1000 nM. Besides, the CC50 at 4 day in data set [2] is more than 100000 nM.

Turning to `COC(=O)Nc1ccc(-n2ccnc2[C@H](Cc2ccccc2)NC(=O)NS(=O)(=O)C2CC2)cc1` [Example 53, (S)-methyl (4-(2-(1-(3-(cyclopropylsulfonyl)ureido)-2-phenylethyl)-1H-imidazol-1-yl)phenyl)carbamate], the EC50 in data set [1] (read-out: Activity) was in the range of 100 to 1000 nM. In data set [2], this compound had a CC50 at 4 day of more than 100000 nM.

For the compound `COC(=O)Nc1ccc(-n2ccnc2[C@H](Cc2ccccc2)NC(=O)NS(=O)(=O)c2cccc(Cl)c2)cc1` [Example 54, (S)-methyl (4-(2-(1-(3-((3-chlorophenyl)sulfonyl)ureido)-2-phenylethyl)-1H-imidazol-1-yl)phenyl)carbamate], the EC50 in data set [1] (read-out: Activity) is 100 to 1000 nM; in data set [1] (read-out: EC50) it was 150 nM. In data set [2], the CC50 at 4 day is more than 100000 nM.

For `COC(=O)Nc1ccc(-n2ccnc2[C@H](Cc2ccccc2)NC(=O)NS(=O)(=O)c2cc(Cl)sc2Cl)cc1` [Example 55, (S)-methyl (4-(2-(1-(3-((2,5-dichlorothiophen-3-yl)sulfonyl)ureido)-2-phenylethyl)-1H-imidazol-1-yl)phenyl)carbamate], in data set [1] (read-out: Activity), the EC50 was less than 100 nM. Further, the CC50 at 4 day in data set [2] was more than 100000 nM.

For `COc1ccc(-n2ccnc2[C@H](Cc2ccccc2)NC(=O)NS(=O)(=O)c2cccc(Cl)c2Cl)cc1` [Example 56, (S)-2,3-dichloro-N-((1-(1-(4-methoxyphenyl)-1H-imidazol-2-yl)-2-phenylethyl)carbamoyl)benzenesulfonamide], the EC50 in data set [1] (read-out: Activity) was less than 100 nM. Besides, the CC50 at 4 day in data set [2] was more than 100000 nM.

Take `CCOc1ccc(-n2ccnc2[C@H](Cc2ccccc2)NC(=O)NS(=O)(=O)c2cccc(Cl)c2Cl)cc1` [Example 57, (S)-2,3-dichloro-N-((1-(1-(4-ethoxyphenyl)-1H-imidazol-2-yl)-2-phenylethyl)carbamoyl)benzenesulfonamide]: the results for the EC50 in data set [1] (read-out: Activity) and in data set [1] (read-out: EC50) were less than 100 nM and 30 nM, respectively. In data set [2], the CC50 at 4 day is more than 100000 nM.

For the compound `COc1ccc(-n2ccnc2[C@H](Cc2ccccc2)NC(=O)NS(=O)(=O)c2ccccc2F)cc1` [Example 58, (S)-2-fluoro-N-((1-(1-(4-methoxyphenyl)-1H-imidazol-2-yl)-2-phenylethyl)carbamoyl)benzenesulfonamide], the EC50 in data set [1] (read-out: Activity) is less than 100 nM. In data set [2], this compound registered a CC50 at 4 day of more than 33000 nM.

Consider `Cc1ccccc1S(=O)(=O)NC(=O)N[C@@H](Cc1ccccc1)c1nccn1-c1ccc(-c2ccoc2)cc1` [Example 59, (S)-N-((1-(1-(4-(furan-3-yl)phenyl)-1H-imidazol-2-yl)-2-phenylethyl)carbamoyl)-2-methylbenzenesulfonamide], for which the EC50 in data set [1] (read-out: Activity) was less than 100 nM. In data set [2], this compound gave a CC50 at 4 day of more than 33000 nM.

For the compound `Cc1ccccc1S(=O)(=O)NC(=O)N[C@@H](Cc1ccccc1)c1nccn1-c1ccc(-c2ccsc2)cc1` [Example 60, (S)-2-methyl-N-((2-phenyl-1-(1-(4-(thiophen-3-yl)phenyl)-1H-imidazol-2-yl)ethyl)carbamoyl)benzenesulfonamide], the EC50 in data set [1] (read-out: Activity) is less than 100 nM; in data set [1] (read-out: EC50), 30 nM. The compound also came in with a CC50 at 4 day in data set [2] of more than 100000 nM.

Turning to `Cc1ccccc1S(=O)(=O)NC(=O)N[C@@H](Cc1ccccc1)c1nccn1-c1ccc(-c2cnn(C)c2)cc1` [Example 61, (S)-2-methyl-N-((1-(1-(4-(1-methyl-1H-pyrazol-4-yl)phenyl)-1H-imidazol-2-yl)-2-phenylethyl)carbamoyl)benzenesulfonamide], the EC50 in data set [1] (read-out: Activity) is less than 100 nM. Besides, the CC50 at 4 day in data set [2] is more than 33000 nM.

Regarding `Cc1ccccc1S(=O)(=O)NC(=O)N[C@@H](Cc1ccccc1)c1nccn1-c1ccc(-c2ccoc2C)cc1` [Example 62, (S)-2-methyl-N-((1-(1-(4-(2-methylfuran-3-yl)phenyl)-1H-imidazol-2-yl)-2-phenylethyl)carbamoyl)benzenesulfonamide], the EC50 in data set [1] (read-out: Activity) is less than 100 nM. The compound further gave a CC50 at 4 day in data set [2] of more than 100000 nM.

On to `COc1ccc(-c2ccc(-n3ccnc3[C@H](Cc3ccccc3)NC(=O)NS(=O)(=O)c3ccccc3C)cc2)cn1` [Example 63, (S)-N-((1-(1-(4-(6-methoxypyridin-3-yl)phenyl)-1H-imidazol-2-yl)-2-phenylethyl)carbamoyl)-2-methylbenzenesulfonamide], for which the EC50 is 100 to 1000 nM in data set [1] (read-out: Activity) and 100 nM in data set [1] (read-out: EC50). For the same compound, the CC50 at 4 day in data set [2] is more than 100000 nM.

On to `O=C(N[C@@H](Cc1ccccc1)c1nccn1-c1ccc(-c2ccoc2)cc1)NS(=O)(=O)c1ccccc1F` [Example 64, (S)-2-fluoro-N-((1-(1-(4-(furan-3-yl)phenyl)-1H-imidazol-2-yl)-2-phenylethyl)carbamoyl)benzenesulfonamide], for which the EC50 in data set [1] (read-out: Activity) was less than 100 nM. Also, in data set [2], the CC50 at 4 day is more than 100000 nM.

In the case of `Cc1ccccc1S(=O)(=O)NC(=O)N[C@@H](Cc1ccccc1)c1nccn1-c1cccc(-c2ccoc2)c1` [Example 65, (S)-N-((1-(1-(3-(furan-3-yl)phenyl)-1H-imidazol-2-yl)-2-phenylethyl)carbamoyl)-2-methylbenzenesulfonamide], in data set [1] (read-out: Activity), the EC50 was 100 to 1000 nM. This compound also gave a CC50 at 4 day in data set [2] of more than 100000 nM.

For `Cc1ccccc1S(=O)(=O)NC(=O)N[C@@H](Cc1ccccc1)c1nccn1-c1ccc2c(c1)ncn2C` [Example 66, (S)-2-methyl-N-((1-(1-(1-methyl-1H-benzo[d]imidazol-5-yl)-1H-imidazol-2-yl)-2-phenylethyl)carbamoyl)benzenesulfonamide], the EC50 is 100 to 1000 nM in data set [1] (read-out: Activity) and 340 nM in data set [1] (read-out: EC50). In data set [2], this compound showed a CC50 at 4 day of more than 100000 nM.

For `Cc1ccc2cc(-n3ccnc3[C@H](Cc3ccccc3)NC(=O)NS(=O)(=O)c3ccccc3C)ccc2n1` [Example 67, (S)-2-methyl-N-((1-(1-(2-methylquinolin-6-yl)-1H-imidazol-2-yl)-2-phenylethyl)carbamoyl)benzenesulfonamide], the EC50 in data set [1] (read-out: Activity) is less than 100 nM. The CC50 at 4 day in data set [2] is more than 100000 nM.

As for `Cc1ccccc1S(=O)(=O)NC(=O)N[C@@H](Cc1ccccc1)c1nccn1-c1cccc(N2CCCC2)c1` [Example 68, (S)-2-methyl-N-((2-phenyl-1-(1-(3-(pyrrolidin-1-yl)phenyl)-1H-imidazol-2-yl)ethyl)carbamoyl)benzenesulfonamide], the EC50 in data set [1] (read-out: Activity) fell in the range of 100 to 1000 nM. In data set [2], the CC50 at 4 day was more than 100000 nM.

As a reminder, the CC50 is the concentration at which the toxic effect on the cells reaches its halfway point.
